According to the NIST ThermoML archive (doi:10.1016/j.tca.2012.01.013):
± gives the expanded uncertainty stated by the source.

Columns and labels:
[1] = 101 kPa, Liquid, Vibrating tube method
[2] = refractive index (Na D-line) (dimensionless); conditions: 101.33 kPa, Liquid, Standard Abbe refractometry
[3] = refractive index (Na D-line) (dimensionless); xn = mol fraction of the nth substance listed; conditions: 101 kPa, Liquid, Standard Abbe refractometry, x2 = 0
[4] = xn = mol fraction of the nth substance listed; conditions: 101 kPa, Liquid, Vibrating tube method, x2 = 0

SMILES	mass density ([1]; 288.15 K) [kg/m3]	mass density ([1]; 293.15 K) [kg/m3]	mass density ([1]; 298.15 K) [kg/m3]	mass density ([1]; 303.15 K) [kg/m3]	refractive index ([3]; 288.15 K)	refractive index ([3]; 293.15 K)	refractive index ([3]; 298.15 K)	refractive index ([3]; 303.15 K)	refractive index ([3]; 308.15 K)	refractive index ([3]; 313.15 K)	refractive index ([3]; 318.15 K)	refractive index ([3]; 323.15 K)	mass density ([4]; 288.15 K) [kg/m3]	mass density ([4]; 293.15 K) [kg/m3]	mass density ([4]; 298.15 K) [kg/m3]	mass density ([4]; 303.15 K) [kg/m3]	mass density ([4]; 308.15 K) [kg/m3]	mass density ([4]; 313.15 K) [kg/m3]	mass density ([4]; 318.15 K) [kg/m3]	mass density ([4]; 323.15 K) [kg/m3]	other results
CCC(C)O (stereo unspecified) [butan-2-ol]	810.689 ± 0.24	806.646 ± 0.24	802.528 ± 0.24	798.326 ± 0.24																	mass density ([1]; 308.15 K): 794.03 ± 0.24 kg/m3; mass density ([1]; 313.15 K): 789.632 ± 0.24 kg/m3; mass density ([1]; 318.15 K): 785.117 ± 0.24 kg/m3; mass density ([1]; 323.15 K): 780.515 ± 0.24 kg/m3; refractive index ([2]; 288.15 K): 1.39951 ± 0.0004; refractive index ([2]; 293.15 K): 1.39736 ± 0.0004; refractive index ([2]; 298.15 K): 1.39515 ± 0.0004; refractive index ([2]; 303.15 K): 1.39293 ± 0.0004; refractive index ([2]; 308.15 K): 1.39064 ± 0.0004; refractive index ([2]; 313.15 K): 1.38832 ± 0.0004; refractive index ([2]; 318.15 K): 1.38596 ± 0.0004; refractive index ([2]; 323.15 K): 1.38352 ± 0.0004
CCC(C)=O [butanone] + COC(=O)CCCCC(=O)OC					1.38153 ± 0.00036	1.37892 ± 0.00036	1.37631 ± 0.00036	1.37366 ± 0.00036	1.37102 ± 0.00036	1.36834 ± 0.00036	1.36565 ± 0.00036	1.36294 ± 0.00036	810.133 ± 0.15	804.926 ± 0.15	799.695 ± 0.15	794.435 ± 0.16	789.142 ± 0.16	783.814 ± 0.16	778.451 ± 0.16	773.047 ± 0.16	
CCC(C)=O [butanone] + COC(=O)c1ccccc1C(=O)OC					1.38153 ± 0.00036	1.37892 ± 0.00036	1.37631 ± 0.00036	1.37366 ± 0.00036	1.37102 ± 0.00036	1.36834 ± 0.00036	1.36565 ± 0.00036	1.36294 ± 0.00036	810.133 ± 0.15	804.926 ± 0.15	799.695 ± 0.15	794.435 ± 0.16	789.142 ± 0.16	783.814 ± 0.15	778.451 ± 0.15	773.047 ± 0.16	
CCC(C)O (stereo unspecified) [butan-2-ol] + COC(=O)CCCCC(=O)OC					1.39951 ± 0.0004	1.39736 ± 0.0004	1.39515 ± 0.0004	1.39293 ± 0.0004	1.39064 ± 0.0004	1.38832 ± 0.0004	1.38596 ± 0.0004	1.38352 ± 0.0004	810.689 ± 0.24	806.646 ± 0.24	802.528 ± 0.24	798.326 ± 0.24	794.03 ± 0.24	789.632 ± 0.24	785.117 ± 0.24	780.515 ± 0.24	
CCCCO [butan-1-ol]	813.373 ± 0.14	809.573 ± 0.14	805.762 ± 0.15	801.923 ± 0.15																	mass density ([1]; 308.15 K): 798.053 ± 0.15 kg/m3; mass density ([1]; 313.15 K): 794.147 ± 0.15 kg/m3; mass density ([1]; 318.15 K): 790.231 ± 0.15 kg/m3; mass density ([1]; 323.15 K): 786.238 ± 0.15 kg/m3; refractive index ([2]; 288.15 K): 1.40135 ± 0.00036; refractive index ([2]; 293.15 K): 1.39932 ± 0.00036; refractive index ([2]; 298.15 K): 1.3973 ± 0.00036; refractive index ([2]; 303.15 K): 1.39523 ± 0.00036; refractive index ([2]; 308.15 K): 1.39318 ± 0.00036; refractive index ([2]; 313.15 K): 1.3911 ± 0.00036; refractive index ([2]; 318.15 K): 1.38901 ± 0.00036; refractive index ([2]; 323.15 K): 1.38688 ± 0.00036
CCC(C)=O [butanone]	810.133 ± 0.15	804.926 ± 0.15	799.695 ± 0.15	794.435 ± 0.16																	mass density ([1]; 308.15 K): 789.142 ± 0.16 kg/m3; mass density ([1]; 313.15 K): 783.814 ± 0.15 kg/m3; mass density ([1]; 318.15 K): 778.451 ± 0.15 kg/m3; mass density ([1]; 323.15 K): 773.047 ± 0.16 kg/m3; refractive index ([2]; 288.15 K): 1.38153 ± 0.00036; refractive index ([2]; 293.15 K): 1.37892 ± 0.00036; refractive index ([2]; 298.15 K): 1.37631 ± 0.00036; refractive index ([2]; 303.15 K): 1.37366 ± 0.00036; refractive index ([2]; 308.15 K): 1.37102 ± 0.00036; refractive index ([2]; 313.15 K): 1.36834 ± 0.00036; refractive index ([2]; 318.15 K): 1.36565 ± 0.00036; refractive index ([2]; 323.15 K): 1.36294 ± 0.00036
COC(=O)CCCCC(=O)OC [dimethyl 1,6-hexanedioate]	1066.79 ± 0.29	1061.93 ± 0.28	1057.06 ± 0.28	1052.18 ± 0.28																	mass density ([1]; 308.15 K): 1047.31 ± 0.27 kg/m3; mass density ([1]; 313.15 K): 1042.43 ± 0.27 kg/m3; mass density ([1]; 318.15 K): 1037.54 ± 0.27 kg/m3; mass density ([1]; 323.15 K): 1032.64 ± 0.26 kg/m3; refractive index ([2]; 288.15 K): 1.4305 ± 0.0004; refractive index ([2]; 293.15 K): 1.42842 ± 0.0004; refractive index ([2]; 298.15 K): 1.42636 ± 0.0004; refractive index ([2]; 303.15 K): 1.42429 ± 0.0004; refractive index ([2]; 308.15 K): 1.42222 ± 0.0004; refractive index ([2]; 313.15 K): 1.42017 ± 0.0004; refractive index ([2]; 318.15 K): 1.41819 ± 0.0004; refractive index ([2]; 323.15 K): 1.41614 ± 0.0004
CCCCO [butan-1-ol] + COC(=O)CCCCC(=O)OC					1.40135 ± 0.00036	1.39932 ± 0.00036	1.3973 ± 0.00036	1.39523 ± 0.00036	1.39318 ± 0.00036	1.3911 ± 0.00036	1.38901 ± 0.00036	1.38688 ± 0.00036	813.373 ± 0.14	809.573 ± 0.14	805.762 ± 0.15	801.923 ± 0.15	798.053 ± 0.15	794.147 ± 0.15	790.231 ± 0.15	786.238 ± 0.15	
CCCCO [butan-1-ol] + COC(=O)c1ccccc1C(=O)OC					1.40135 ± 0.00036	1.39932 ± 0.00036	1.3973 ± 0.00036	1.39523 ± 0.00036	1.39318 ± 0.00036	1.3911 ± 0.00036	1.38901 ± 0.00036	1.38688 ± 0.00036	813.373 ± 0.14	809.573 ± 0.14	805.762 ± 0.15	801.923 ± 0.15	798.053 ± 0.15	794.147 ± 0.15	790.231 ± 0.15	786.238 ± 0.15	
CCC(C)O (stereo unspecified) [butan-2-ol] + COC(=O)c1ccccc1C(=O)OC					1.39951 ± 0.0004	1.39736 ± 0.0004	1.39515 ± 0.0004	1.39293 ± 0.0004	1.39064 ± 0.0004	1.38832 ± 0.0004	1.38596 ± 0.0004	1.38352 ± 0.0004	810.689 ± 0.24	806.646 ± 0.24	802.528 ± 0.24	798.326 ± 0.24	794.03 ± 0.24	789.632 ± 0.24	785.117 ± 0.24	780.515 ± 0.24	
COC(=O)c1ccccc1C(=O)OC [dimethyl 1,2-benzenedicarboxylate]	1196.26 ± 0.39	1191.59 ± 0.39	1186.93 ± 0.39	1182.28 ± 0.38																	mass density ([1]; 308.15 K): 1177.62 ± 0.38 kg/m3; mass density ([1]; 313.15 K): 1172.97 ± 0.37 kg/m3; mass density ([1]; 318.15 K): 1168.32 ± 0.37 kg/m3; mass density ([1]; 323.15 K): 1163.67 ± 0.37 kg/m3; refractive index ([2]; 288.15 K): 1.51779 ± 0.0004; refractive index ([2]; 293.15 K): 1.51565 ± 0.0004; refractive index ([2]; 298.15 K): 1.51354 ± 0.0004; refractive index ([2]; 303.15 K): 1.51146 ± 0.0004; refractive index ([2]; 308.15 K): 1.50943 ± 0.0004; refractive index ([2]; 313.15 K): 1.50736 ± 0.0004; refractive index ([2]; 318.15 K): 1.50524 ± 0.0004; refractive index ([2]; 323.15 K): 1.5032 ± 0.0004
